Data on nine compounds can be found in article PMC6789456, “Ursolic Acid Derivatives as Potential Agents Against Acanthamoeba Spp” (Pathogens, 2019).

Molecules are shown by their SMILES.

One may read the IC50 as the point on the concentration scale where inhibition reaches its midpoint. Low readings indicate inhibition by little substance, high ones a need for much substance. As usually defined, the CC50 is the concentration that lowers cell viability or growth by half. By IC90 is commonly meant the concentration at which the effect reaches the 90% level.

One series concerns Acanthamoeba griffini. Description: In vitro effect against the trophozoite stage, Alamar Blue assay. The format is cell-based. The following applies: 96 h, trophozoites, mean ± SD. On the procedure: (§1) The anti-Acanthamoeba activity of molecules was evaluated against the Acanthamoeba castellanii Neff (ATCC 30010) type strain from the American Type Culture Collection and Acanthamoeba griffini obtained in previous studies. Those strains were grown axenically in Peptone Yeast Glucose (PYG) medium (0.75% (w/v) proteose peptone, 0.75% (w/v) yeast extract, and 1.5% (w/v) glucose) containing 40 μg of gentamicin ml−1 (Biochrom AG, Cultek, Granollers, Barcelona, Spain).
(§2) The anti-Acanthamoeba activities of the compounds were determined by the Alamar Blue assay as previously described. Briefly, Acanthamoeba strains were seeded in duplicate on a 96-well microtiter plate with 50 μL from a stock solution of 10^4 cells mL^−1. Amoebae were allowed to adhere for 15 min and 50 μL of serial dilution series of the eye drop solution was added. Finally, the Alamar Blue assay reagent (Bioresource, Europe, Nivelles, Belgium) was added into each well at an amount equal to 10% of the medium volume. The plates were then incubated for 96 h at 28 °C with a slight agitation and the emitted fluorescence was measured with an Enspire microplate reader (PerkinElmer, Massachusetts, USA) at 570/585 nm.
(The colour change of resazurin is a common sign of viable cells or microbes.)

Series [1] is described as follows: Cytotoxicity, Alamar Blue assay. The following applies: mouse, J774.A1 macrophage cell line (ATCC TIB-67), J774.A1, 24 h, mean ± SD, >100 if inhibition did not reach 50% at the highest concentration, read-out: Murine Macrophages CC50. The format is cell-based. How it is done: Cytotoxicity of the selected compounds was evaluated after 24 h incubation of murine macrophage J774.A1 cell line (ATCC # TIB-67) with different concentrations of the tested compounds at 37 °C in a 5% CO2 humidified incubator. The viability of the macrophages was determined with the Alamar Blue assay as previously described.

The test system of series [2] is Acanthamoeba castellanii Neff. Description: In vitro effect against the trophozoite stage, Alamar Blue assay. The series is classed as cell-based. The conditions noted are these: for IC50: trophozoites, Alamar blue, 96 h, mean ± SD; for IC90: concentration used in the double-stain assay, A. castellanii Neff trophozoites. On the procedure:
as §1, §2

Series [3] has as its system Acanthamoeba castellanii Neff. Description: Mitochondrial membrane potential, JC-1. The format is cell-based. The following applies: treated with IC90, 24 h; for decrease of mitochondrial membrane potential (ΔΨm): ratio of fluorescence 590/530 nm. How it is done:
The collapse of an electrochemical gradient across the mitochondrial membrane during apoptosis was detected with the JC-1 mitochondrial membrane potential detection kit (Cell Technology). After being treated with IC90 of the test solution for 24 h, the cells were centrifuged (1000 r.p.m. × 10 min) and resuspended in JC-1 buffer. After that, 100 µL of each treated culture was added to a black 96 well plate (PerkinElmer) then 10 µL of JC-1 was added and incubated at 26 °C for 30 min. Analysis for the mean green and red fluorescence intensity was done using an Enspire microplate reader (PerkinElmer, Waltham, MA, USA) after 30 minutes. As well as images were taken on an EVOS fluorescence microscope from the Advanced Microscopy Group (AMG). The staining pattern allows the identification of two groups in a cellular population: Live cells will show only red fluorescence; and cells with low mitochondrial potential, (undergoing PCD) will show a higher level of green and red fluorescence.

A short description of series [4]: Solubility (comparison in words). The series is classed as physicochemical. The following applies: compared to the origin compound 1 (ursolic acid).
A further series relates to Acanthamoeba spp. cysts. Description: In vitro effect against the cyst stage, Alamar Blue assay. The series is classed as cell-based. The conditions noted are these: both strains, viability of cysts. On the procedure: The cysticidal activity was determined by the Alamar Blue assay at 144 h and confirmed visually by inverted microscopy. Cysts of both strains were prepared as described by Lorenzo-Morales et al. (2008). Briefly, trophozoite were transferred from PYG medium based cultures (trophozoite medium) to Neff´s encystment medium (NEM; 0.1 M KCl, 8 mM MgSO4·7H2O, 0.4 mM CaCl2·2H2O, 1 mM NaHCO3, and 20 mM ammediol (2-amino-2-methyl-1,3-propanediol; Sigma Aldrich Chemistry Ltd., Madrid, Spain), pH 8.8, at 25 °C) and were cultured in this medium with gentle shaking for a week in order to obtain mature cysts. After that, mature cysts were harvested and washed twice using the PYG medium.
A serial dilution of the tested molecules was made in PYG. The in vitro susceptibility assay was performed in sterile 96-well microtiter plates (Corning™). To these wells the drug concentration to be tested and 5 × 10^4 mature cysts of Acanthamoeba/ml were added. The final volume was 100 μL in each well. After 7 days of incubation with the drugs, the plate was centrifuged at 3000 rpm for 10 min. […] Finally, 10 μL of the Alamar Blue assay reagent (Biosource, Europe, Nivelles, Belgium) was placed into each well, and the plates were then incubated for 144 h at 28 °C with slight agitation and the emitted fluorescence was periodically examined with an Enspire microplate reader (PerkinElmer, Waltham, MA, USA) at 570/585 nm.

Another series relates to Acanthamoeba Neff. As to the kind of experiment: Intracellular ROS production, CellROX Deep Red staining. The format is cell-based, Acanthamoeba castellanii. The following applies: treated with IC90, 24 h, vs negative control. On the procedure:
The generation of intracellular ROS was detected using the CellROX® Deep Red fluorescent probe (Invitrogen). The cells were treated with IC90 of both 5 and 7 for 24 h and exposed to CellROX® Deep Red (5 μM, 30 min) at 26 °C in the dark.

The subject of series [5] is murine macrophage J774.A1 cell line. As to the kind of experiment: Cytotoxicity, Alamar Blue assay. The format is cell-based. The following applies: 50 µM, J774A.1, inverted microscopy, compared to 1.
The subject of series [6] is Acanthamoeba castellanii Neff trophozoite. Description: Double-stain assay (Hoechst 33342/PI) for programmed cell death. The series is classed as cell-based. The following applies: treated with IC90, 24 h; for Propidium Iodide (PI) stain: data not shown. How it is done:
A double-stain apoptosis detection kit (Hoechst 33342/PI; GenScript, Piscataway, NJ, USA) and an inverted confocal microscope (Leica DMI 4000B) were used. The experiment was carried out by following the manufacturer’s recommendations, and 10^5 cells/well were incubated in a 24-well plate for 24 h with the previously calculated IC90. The double-staining pattern allows the identification of three groups in a cellular population: Live cells will show only a low level of fluorescence, cells undergoing PCD will show a higher level of blue fluorescence (as chromatin condenses), and dead cells will show low-blue and high-red fluorescence (as the propidium iodide stain enters the nucleus).

Take `[H]/N=C(\N/C(=N/[H])NCCCCCCNC(=N)NC(=N)Nc1ccc(Cl)cc1)Nc1ccc(Cl)cc1` [Chlorhexidine, reference compound]: inhibition in the series on Acanthamoeba griffini (Acanthamoeba griffini) was half-maximal at 3.73 ± 0.98 µM (IC50). Also, the CC50 at 24 h in series [1] came to 7.4 ± 0.39 µM.

On to `C[C@H]1[C@H](C)CC[C@]2(C(=O)O)CC[C@]3(C)C(=CC[C@@H]4[C@@]5(C)CC[C@H](O)C(C)(C)[C@@H]5CC[C@]43C)[C@H]12` [Compound 1, Ursolic acid], for which the IC50 in series [2] is 40 ± 2.7 µM; with Acanthamoeba griffini (Acanthamoeba griffini), 15.3 µM; with Acanthamoeba griffini, 15.2 ± 0.3 µM. Further, in series [1], the CC50 at 24 h worked out at 17.7 ± 3.3 µM.

With `CC(=O)O[C@H]1CC[C@@]2(C)C(CC[C@]3(C)C2CC=C2C4[C@@H](C)[C@H](C)CC[C@]4(C(=O)O)CC[C@]23C)C1(C)C` (some centres unmarked) [Compound 2], the IC50 in [2] stood at 24.2 ± 0.3 µM; with Acanthamoeba griffini (Acanthamoeba griffini), 11.1 ± 0.8 µM. Further, the CC50 at 24 h in series [1] worked out at 93.2 ± 7.2 µM.

Regarding `C[C@@H]1CC[C@]2(C(=O)O)CC[C@]3(C)C(=CCC4[C@@]5(C)CCC(=O)C(C)(C)C5CC[C@]43C)C2[C@H]1C` (some centres unmarked) [Compound 3], the IC50 in [2] is 34.9 ± 1.5 µM; with Acanthamoeba griffini (Acanthamoeba griffini), 10.2 ± 0.5 µM. Besides, the CC50 at 24 h in series [1] was greater than 100 µM.

Consider `COC(=O)[C@]12CC[C@@H](C)[C@H](C)C1C1=CCC3[C@@]4(C)CC[C@H](O)C(C)(C)C4CC[C@@]3(C)[C@]1(C)CC2` (some centres unmarked) [Compound 4], for which the IC50 in [2] worked out at 21.9 ± 0.9 µM; in the series with Acanthamoeba griffini (Acanthamoeba griffini) it was 8.7 ± 0.4 µM. Moreover, the CC50 at 24 h in [1] was 26.3 ± 1.7 µM.

With `COC(=O)[C@]12CC[C@@H](C)[C@H](C)C1C1=CCC3[C@@]4(C)CC[C@H](OC)C(C)(C)C4CC[C@@]3(C)[C@]1(C)CC2` (some centres unmarked) [Compound 5], in series [3], the “mitochondrial membrane potential, JC-1 imaging” value is “depolarize the mitochondrial membrane potential” and the “decrease of mitochondrial membrane potential (ΔΨm)” value turned out to be 49.0%. In series [4], the solubility result is listed as “higher than the origin compound 1”. For the same compound, the cysticidal effect entry with Acanthamoeba spp. cysts is recorded as “dose-dependent cysticidal effect”. Besides, the “reactive oxygen species (ROS) levels” value in the series with Acanthamoeba Neff is “increased”. In series [2], this compound came in with an IC90 of 86 µM and an IC50 of 22.7 ± 1.4 µM. In the series with Acanthamoeba griffini (Acanthamoeba griffini), the IC50 stood at 6.9 ± 1.5 µM. Moreover, the CC50 at 24 h in series [1] was greater than 100 µM. The “effect on morphology of murine macrophages” value in series [5] is “did not affect the morphology”. Further, in series [6], the “chromatin condensation (Hoechst 33342 stain)” value is listed as “induced chromatin condensation” and the “Propidium Iodide (PI) stain” value is given as “did not stain”.

For the compound `COC(=O)[C@]12CC[C@@H](C)[C@H](C)C1C1=CCC3[C@@]4(C)CC[C@H](OC(C)=O)C(C)(C)C4CC[C@@]3(C)[C@]1(C)CC2` (some centres unmarked) [Compound 6], the IC50 in [2] was found to be 37.1 ± 1.3 µM; in the series on Acanthamoeba griffini (Acanthamoeba griffini), 9.1 ± 1 µM. In addition, the CC50 at 24 h in series [1] was greater than 100 µM.

Take `COC(=O)[C@]12CC[C@@H](C)[C@H](C)C1C1=CCC3[C@@]4(C)CC[C@H](OC(=O)c5ccc([N+](=O)[O-])cc5)C(C)(C)C4CC[C@@]3(C)[C@]1(C)CC2` (stereo partly drawn) [Compound 7, 3β-(p-nitrobenzoyloxy)-urs-12-en-28-oic acid methyl ester]: in [3], the “mitochondrial membrane potential, JC-1 imaging” value is listed as “depolarize the mitochondrial membrane potential” and the “decrease of mitochondrial membrane potential (ΔΨm)” value came to 35.0%. Further, the solubility result in series [4] is “higher than the origin compound 1”. Besides, the cysticidal effect entry in the series with Acanthamoeba spp. cysts is “dose-dependent cysticidal effect”. Also, the “reactive oxygen species (ROS) levels” value in the series with Acanthamoeba Neff was “increased”. Moreover, in series [2], the IC90 came out at 75 µM and 21.4 ± 1.3 µM corresponded to half-maximal inhibition (IC50). This compound also gave an IC50 in the series on Acanthamoeba griffini (Acanthamoeba griffini) of 6.7 ± 1.8 µM. Besides, the CC50 at 24 h in [1] is greater than 100 µM. In series [6], the “chromatin condensation (Hoechst 33342 stain)” value is given as “induced chromatin condensation” and the “Propidium Iodide (PI) stain” value is given as “did not stain”.

On to `COC(=O)[C@]12CC[C@@H](C)[C@H](C)C1C1=CCC3[C@@]4(C)CC[C@H](OC(=O)c5ccccc5)C(C)(C)C4CC[C@@]3(C)[C@]1(C)CC2` (some centres unmarked) [Compound 8], for which the IC50 turned out to be 33.5 ± 2.1 µM in series [2] and 11.5 ± 0.8 µM in the series with Acanthamoeba griffini (Acanthamoeba griffini). In addition, the CC50 at 24 h in series [1] was greater than 100 µM.
